Laboratory results reported in patent US20040224031A1, “Combination of amines and vanadium (IV)/(V) compounds for the treatment and/or prevention of diabetes mellitus” (priority 2003, published 2004).

What was measured:
isolated rat adipocytes = assay: Hexose transport (2-deoxyglucose uptake) in isolated rat adipocytes; assay type: cell-based; set-up: stimulation of 2-deoxyglucose uptake, agent alone: dose or concentration left out as unconfirmed; details: for glucose transport (2-DG uptake): 45 min preincubation of fat cells with increasing concentrations; for stimulation of 2-deoxyglucose uptake, agent alone: benzylamine or orthovanadate alone, 10-min uptake
Procedure: Adipocyte isolation. […] Adipose cells isolated in such a way were used in subsequent studies.
Hexose transport. After a preincubation period of 45 min at 37° C. in vials containing 400 μl of cell suspension in KRBH with the tested products, [^3H]-2-deoxyglucose was added at a final concentration of 0.1 mM (approx. 1,300,000 d.p.m./vial). […] After centrifugation, the fat cells (upper part of the tubes) were placed in scintillation vials and the incorporated radioactivity was counted.

GLUT4 = tested on: GLUT4; set-up: increase in the abundance of GLUT4 in plasma membrane preparations / abundance of GLUT4 in plasma membranes, agent alone: dose or concentration left out as unconfirmed; details: for abundance of GLUT4 in plasma membranes, agent alone: benzylamine or orthovanadate alone; for amount of GLUT4 protein in the plasma membrane (PM): n=3, orthovanadate 0.1 mM
Procedure: To verify whether the stimulation of glucose transport in rat adipocytes may be explained by a translocation of the insulin-sensitive glucose transporters from an internal site to the plasma membrane, as it is known for insulin, the amount of GLUT4 protein was determined in plasma membrane (PM) and low density microsome (LDM) fractions.

[1] = tested on: streptozotocin-induced diabetic rats; assay: Chronic administration in streptozotocin-induced diabetic rats; assay type: in vivo, rat; details: for food and water consumption / weight of epididymal adipose tissue (adiposity): chronic treatment of diabetic rats
Text: A group of animals was also subjected to daily i.p. injection of vanadate (50 μmol/kg body wt) for two weeks.
In other studies, rats were daily injected intraperitoneally with 25 μmol/kg vanadate for the first week and with 50 μmol/kg for the second week.

[2] = 1 mM H2O2, preincubation 45 min, n=23
[3] = vanadate i.p. 25 μmol/kg first week and 50 μmol/kg second week, benzylamine 84 μmol/kg, FIG. 6, FIG. 7

OO [H2O2, hydrogen peroxide]
effect relative to the maximal insulin effect (isolated rat adipocytes; [2]): 46%
factor multiplying basal hexose transport (isolated rat adipocytes; [2]): 5.0±0.8 fold
glucose transport (2-DG uptake) (isolated rat adipocytes; 5-min 2-DG uptake, FIG. 1): dose-dependently stimulated

NCc1ccccc1 [benzylamine]
abundance of GLUT4 in plasma membranes, agent alone (GLUT4; 45 minutes incubation): did not alter
food and water consumption [1]: not detected
weight of epididymal adipose tissue (adiposity) [1]: not detected
glycemia [1, 3]: remained hyperglycemic
stimulation of 2-deoxyglucose uptake, agent alone (isolated rat adipocytes; FIG. 3): no stimulatory effect

CNC[C@H](O)c1cccc(O)c1 [phenylephrine]
glucose transport (2-DG uptake) (isolated rat adipocytes; 5-min 2-DG uptake, FIG. 1): not activated

NNC(N)=O [semicarbazide]
effect on glucose transport stimulated by 1 mM hydrogen peroxide plus 0.1 mM orthovanadate (isolated rat adipocytes): unaffected
inhibition at 100 µM (isolated rat adipocytes; Rattus norvegicus, Adipocyte, read-out: inhibition of the glucose transport promoted by 1 mM tyramine plus orthovanadate): 59 ± 7%
effect on stimulation of 2-deoxyglucose uptake by benzylamine and orthovanadate (isolated rat adipocytes; semicarbazide (1 mM), FIG. 3): abolished

NCCc1c[nH]c2ccc(O)cc12 [serotonin]
glucose transport (2-DG uptake) (isolated rat adipocytes; 5-min 2-DG uptake, FIG. 1): not activated

NCCc1ccc(O)cc1 [tyramine]
glucose transport (2-DG uptake) (isolated rat adipocytes; 5-min 2-DG uptake, FIG. 1): not activated
synergism on glucose transport with low, ineffective doses of insulin (10 pM) or hydrogen peroxide (0.01 mM) (isolated rat adipocytes; not shown): no synergism

insulin: hormone used as positive control for glucose transport and GLUT4 translocation
GLUT4 abundance in light microsomes (GLUT4): reduction
increase in the abundance of GLUT4 in plasma membrane preparations (GLUT4; 45 minutes incubation): 3.3 fold
content of β1-integrin, a constitutive PM protein (GLUT4; Example 2, plasma membrane fraction): without any significant change
plasma membrane marker β1-integrin (GLUT4; Example 4, 45 minutes incubation): remained unaltered
decrease of basal GLUT4 content of LDM (GLUT4; Western blot, low density microsomes): 29%
amount of GLUT4 protein in the plasma membrane (PM) (GLUT4; Western blot): 252±43%
increase of basal 2-DG uptake (isolated rat adipocytes; insulin, 45 min preincubation, 5-min 2-DG uptake, FIG. 1): twelve-fold

sodium orthovanadate
abundance of GLUT4 in plasma membranes, agent alone (GLUT4; 45 minutes incubation): did not alter
amount of GLUT4 protein in the plasma membrane (PM) (GLUT4; Western blot): 103±8%
food and water consumption [1]: not detected
weight of epididymal adipose tissue (adiposity) [1]: not detected
glycemia ([1]; vanadate 50 μmol/kg daily i.p. for two weeks, benzylamine 84 μmol/kg/day by osmotic minipumps, FIG. 5): moderate reduction
glycemia [1, 3]: remained hyperglycemic
stimulation of glucose transport as % of that of 100 nM insulin (isolated rat adipocytes; 1 mM tyramine, 0.1 mM orthovanadate, 100 nM insulin, n=40): 5±1%
stimulation of 2-deoxyglucose uptake, agent alone (isolated rat adipocytes; FIG. 3): did not stimulate
effect on basal or insulin-stimulated glucose transport (isolated rat adipocytes; orthovanadate alone 0.1 mM, FIG. 2): did not affect
